According to US9675592B2, “Methods and compositions for bacteria infections” (priority 2013, dated 2017):

Key:
[1] = tested on: test strain 923 pPvra-lux (USA300 MRSA); experiment: Primary screen, relative growth in presence of oxacillin; conditions: compound 10 μM with oxacillin 2 μg/mL, absorbance 24 h, <0.50 = dead cells = hit
[2] = tested on: vraSR promoter (Pvra-lux reporter in strain 923); experiment: Primary screen, relative luminescence (vraSR expression); conditions: primary screen, compound 10 μM with oxacillin 2 μg/mL; <0.50 = vraSR repressed = hit

SMILES | RG avg (relative growth) [1] | RL avg (relative luminescence) [2]
Cc1ccc(C)c(-c2nnc(NC(=O)c3ccc(S(=O)(=O)N4CC(C)OC(C)C4)cc3)o2)c1 (centres unmarked) [F2518-334] | 0.00 | −0.04
CC1CCCCN1S(=O)(=O)c1ccc(C(=O)Nc2nnc(-c3ccc4c(c3)OCCO4)o2)cc1 (centres unmarked) [F0608-71] | −0.03 | 0.01
O=C(Nc1nnc(-c2cccnc2)o1)c1cccc(Br)c1 [F0608-950] | −0.01 | −0.14
O=C(Nc1nnc(-c2ccco2)o1)c1ccc(S(=O)(=O)N2CCCc3ccccc32)cc1 [F0608-447] | −0.05 | −0.02
COc1ccccc1-c1nnc(NC(=O)c2sc3ccccc3c2Cl)o1 [F1374-253] | 0.04 | 0.32
O=C(Nc1nnc(-c2ccccn2)o1)c1cc(Cl)cc(Cl)c1 [F0608-928] | −0.01 | 0.07
O=C(Nc1nc(-c2ccccn2)cs1)c1cc(Cl)ccc1Cl [F0447-277] | −0.06 | −0.11
O=C(Nc1nnc(-c2ccc(Cl)cc2)o1)c1ccc2ncsc2c1 [F1374-836] | −0.01 | 0.31
Cc1ccc(-c2nnc(NC(=O)c3nc4ccccc4s3)o2)c(C)c1 [F2518-183] | 0.00 | −0.04
COc1cccc(-c2nnc(NC(=O)c3ccc(Cl)cc3)o2)c1 [F1374-320] | 0.04 | 0.32
COc1cccc(-c2nnc(NC(=O)C(c3ccccc3)c3ccccc3)o2)c1 [F1374-379] | 0.47 | 0.34
O=C(Nc1nnc(-c2ccc(F)cc2)o1)c1nc2ccccc2s1 [F1374-138] | 0.00 | 0.40
COc1cccc(-c2nnc(NC(=O)c3cccc(Oc4ccccc4)c3)o2)c1 [F1374-396] | 0.04 | 0.34
O=C(Nc1nc(-c2ccccn2)cs1)c1cccc(Oc2ccccc2)c1 [F0447-264] | −0.03 | −0.05
O=C(Nc1nnc(-c2ccc(Br)s2)o1)c1cc(Cl)ccc1Cl [F5093-46] | −0.01 | −0.07
CCCCN(CC)S(=O)(=O)c1ccc(C(=O)Nc2nnc(-c3ccccc3Cl)o2)cc1 [F0559-36] | −0.08 | −0.16
COC(=O)c1ccc(C(=O)Nc2nnc(-c3ccccc3Cl)o2)cc1 [F1374-55] | 0.28 | 0.47
COc1cc(OC)cc(-c2nnc(NC(=O)c3ccc(S(=O)(=O)N(CC(C)C)CC(C)C)cc3)o2)c1 [F0559-264] | −0.04 | −0.10
Cc1ccc(C)c(-c2nnc(NC(=O)c3ccc(Br)s3)o2)c1 [F2518-329] | 0.00 | −0.11
O=C(Nc1nnc(-c2cc3ccccc3o2)o1)c1ccc(F)cc1 [F2273-390] | 0.27 | 0.20
COc1ccc(-c2nnc(NC(=O)c3cc(Cl)sc3Cl)o2)c(OC)c1 [F1374-583] | 0.00 | 0.36
O=C(Nc1nnc(-c2cc(Cl)sc2Cl)o1)c1cccs1 [F1374-2664] | 0.00 | 0.32
CCOc1cc(-c2nnc(NC(=O)c3ccc4ccccc4c3)o2)cc(OCC)c1OCC [F2517-182] | 0.46 | −0.04
CCOc1ccc(-c2nnc(NC(=O)c3c(-c4ccccc4Cl)noc3C)o2)cc1 [F2517-329] | −0.02 | −0.11
Cc1onc(-c2ccccc2Cl)c1C(=O)Nc1nnc(-c2cc(Cl)sc2Cl)o1 [F1374-2706] | 0.02 | 0.25
